Measurements from patent publication US20030104507A1, “Method for detection of ATP” (priority 2001, published 2003).

System: ATPase activity endogenous to L929 cell lysate
Assay: Detergent inhibition of ATPase endogenous to L929 cell lysate (ATP remaining by luciferase luminescence, 22° C.)
Assay type: biochemical
Design: key to Relative ATPase Activity, slope det/slope lysate: slope with detergent / slope without; ≥1.0 = 100% activity, 0.5 = 50%
Procedure, shortened: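 L929 lysate (1.5×10^5 cells/ml, four freeze–thaw cycles) held with detergent at final 1.0, 0.5, 0.1 or 0.05% at 22° C; remaining ATP read over time with luciferase-luciferin reagent (100 μM luciferin, 10 mM MgSO4, pH 7.5). Relative ATPase activity = slope of log % ATP remaining vs time with detergent ÷ slope for lysate-only control.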

[1] = Example 2, 0.002% detergent, 5 min
[2] = Example 2, 0.002% detergent, 75 min
[3] = Example 2, 0.002% detergent, 169 min
[4] = Example 2, 0.002% detergent, 222 min
[5] = Example 2, 0.002% detergent, 260 min
[6] = Example 2, 0.01% detergent, 5 min
[7] = Example 2, 0.01% detergent, 75 min
[8] = Example 2, 0.01% detergent, 169 min
[9] = Example 2, 0.01% detergent, 222 min
[10] = Example 2, 0.01% detergent, 260 min

**Q.** `CCCCCCCCCCCCOS(=O)(=O)[O-].[Na+]` [SDS, Sodium dodecyl sulfate] was tested. Which “Relative ATPase Activity, slope det/slope lysate” value (0.002 percent detergent) did it give?
**A.** The value was 1.010.

**Q.** What about the “Slope (log percent ATP remaining vs time in minutes)” value (0.002 percent detergent) of the same molecule?
**A.** Its value is −0.0064.

**Q.** And the “Relative ATPase Activity, slope det/slope lysate” value (0.01 percent detergent)?
**A.** Its value is 0.702.

**Q.** What about the “Slope (log percent ATP remaining vs time in minutes)” value (0.01 percent detergent) of the same molecule?
**A.** Its value is −0.00385.

**Q.** What about the “Average Relative Light Unit Values” (0.05% detergent, 5 min) of the same molecule?
**A.** Its value is 1181.17 rlu.

**Q.** And the “Percent ATP Remaining” value (0.05% detergent, 5 min)?
**A.** The value was 100%.

**Q.** What about the “Average Relative Light Unit Values” (0.05% detergent, 75 min) of the same molecule?
**A.** Its value is 1060.03 rlu.

**Q.** What about the “Percent ATP Remaining” value (0.05% detergent, 75 min) of the same molecule?
**A.** Its value is 89.7%.

**Q.** And the “Average Relative Light Unit Values” (0.05% detergent, 169 min)?
**A.** Its value is 949.7 rlu.

**Q.** And the “Percent ATP Remaining” value (0.05% detergent, 169 min)?
**A.** Its value is 80.4%.

**Q.** What about the “Average Relative Light Unit Values” (0.05% detergent, 222 min) of the same molecule?
**A.** Its value is 921.86 rlu.

**Q.** What about the “Percent ATP Remaining” value (0.05% detergent, 222 min) of the same molecule?
**A.** The value was 78.0%.

**Q.** What about the “Average Relative Light Unit Values” (0.05% detergent, 260 min) of the same molecule?
**A.** Its value is 803.0 rlu.

**Q.** What about the “Percent ATP Remaining” value (0.05% detergent, 260 min) of the same molecule?
**A.** Its value is 68.0%.

**Q.** And the “Relative ATPase Activity, slope det/slope lysate” value (0.05 percent detergent)?
**A.** Its value is 0.105.

**Q.** And the “Slope (log percent ATP remaining vs time in minutes)” value (0.05 percent detergent)?
**A.** The value was −0.0006.

**Q.** And the “Average Relative Light Unit Values” (0.1% detergent, 5 min)?
**A.** Its value is 0.31 rlu.

**Q.** What about the “Average Relative Light Unit Values” (0.1% detergent, 75 min) of the same molecule?
**A.** Its value is 0.18 rlu.

**Q.** What about the “Average Relative Light Unit Values” (0.1% detergent, 169 min) of the same molecule?
**A.** The value was 0.21 rlu.

**Q.** And the “Average Relative Light Unit Values” (0.1% detergent, 222 min)?
**A.** Its value is 0.26 rlu.

**Q.** What about the “Average Relative Light Unit Values” (0.1% detergent, 260 min) of the same molecule?
**A.** Its value is 0.34 rlu.

**Q.** What about the “Average Relative Light Unit Values” (0.5% detergent, 5 min) of the same molecule?
**A.** Its value is 0.00 rlu.

**Q.** And the “Average Relative Light Unit Values” (0.5% detergent, 75 min)?
**A.** The value was 0.00 rlu.

**Q.** What about the “Average Relative Light Unit Values” (0.5% detergent, 169 min) of the same molecule?
**A.** Its value is 0.02 rlu.

**Q.** What about the “Average Relative Light Unit Values” (0.5% detergent, 222 min) of the same molecule?
**A.** Its value is 0.00 rlu.

**Q.** And the “Average Relative Light Unit Values” (0.5% detergent, 260 min)?
**A.** Its value is 0.00 rlu.

**Q.** What about the “Average Relative Light Unit Values” (1.0% detergent, 5 min) of the same molecule?
**A.** Its value is 0.01 rlu.

**Q.** What about the “Average Relative Light Unit Values” (1.0% detergent, 75 min) of the same molecule?
**A.** The value was 0.00 rlu.

**Q.** And the “Average Relative Light Unit Values” (1.0% detergent, 169 min)?
**A.** Its value is 0.01 rlu.

**Q.** And the “Average Relative Light Unit Values” (1.0% detergent, 222 min)?
**A.** Its value is 0.00 rlu.

**Q.** What about the “Average Relative Light Unit Values” (1.0% detergent, 260 min) of the same molecule?
**A.** Its value is 0.01 rlu.

**Q.** What about the “Average Relative Light Unit Values” [1] of the same molecule?
**A.** The value was 5773.39 rlu.

**Q.** What about the “Percent ATP Remaining” value [1] of the same molecule?
**A.** The value was 100.00%.

**Q.** And the “Average Relative Light Unit Values” [2]?
**A.** The value was 1574.34 rlu.

**Q.** And the “Percent ATP Remaining” value [2]?
**A.** The value was 27.27%.

**Q.** What about the “Average Relative Light Unit Values” [3] of the same molecule?
**A.** The value was 278.67 rlu.

**Q.** What about the “Percent ATP Remaining” value [3] of the same molecule?
**A.** The value was 4.83%.

**Q.** What about the “Average Relative Light Unit Values” [4] of the same molecule?
**A.** The value was 236.28 rlu.

**Q.** And the “Percent ATP Remaining” value [4]?
**A.** The value was 4.09%.

**Q.** What about the “Average Relative Light Unit Values” [5] of the same molecule?
**A.** Its value is 128.58 rlu.

**Q.** And the “Percent ATP Remaining” value [5]?
**A.** Its value is 2.23%.

**Q.** And the “Average Relative Light Unit Values” [6]?
**A.** Its value is 13116.20 rlu.

**Q.** And the “Percent ATP Remaining” value [6]?
**A.** Its value is 100.00%.

**Q.** What about the “Average Relative Light Unit Values” [7] of the same molecule?
**A.** The value was 10753.03 rlu.

**Q.** And the “Percent ATP Remaining” value [7]?
**A.** The value was 48.62%.

**Q.** What about the “Average Relative Light Unit Values” [8] of the same molecule?
**A.** The value was 12051.63 rlu.

**Q.** What about the “Percent ATP Remaining” value [8] of the same molecule?
**A.** The value was 25.80%.

**Q.** What about the “Average Relative Light Unit Values” [9] of the same molecule?
**A.** The value was 11822.03 rlu.

**Q.** And the “Percent ATP Remaining” value [9]?
**A.** The value was 14.20%.

**Q.** And the “Average Relative Light Unit Values” [10]?
**A.** Its value is 11900.73 rlu.

**Q.** And the “Percent ATP Remaining” value [10]?
**A.** The value was 8.79%.

**Q.** What about the “times more ATP present in the sample after four hours when the detergent was present than when it was absent” value (SDS 0.05%, deoxycholate 0.5% and 0.1%) of the same molecule?
**A.** Its value is “about three to about twenty”.

**Q.** What about the “concentrations which resulted in a 25% or greater decrease in the relative ATPase activity” value (compared to reactions in the absence of detergent) of the same molecule?
**A.** The value was ≥ 0.01%.
